The values that follow come from PMC11181322, “Copper(II) Complexes with Isomeric Morpholine-Substituted 2-Formylpyridine Thiosemicarbazone Hybrids as Potential Anticancer Drugs Inhibiting Both Ribonucleotide Reductase and Tubulin Polymerization: The Morpholine Position Matters” (Journal of Medicinal Chemistry, 2024).

Structures are written as SMILES.

On the set-up of data set [1]: method as in PMID 32336116. Particulars: copper(II) complexes of the named TSCs, measured under similar conditions ref 67; cited from earlier work.
Another data set relates to purified tubulin. Description: Inhibition of polymerization of purified tubulin. Type of data set: biochemical. The following applies: read-out: inhibition of tubulin IC50 ± SD.
The next data set deals with tubulin. Description: Inhibition of [3H]colchicine binding to tubulin. Particulars: for inhibition of colchicine binding % inhibition ± SD: tubulin 0.5 μM, colchicine 5 μM.
In a further data set the test system is MES-SA/Dx5 cells. Description: Fluorescent protein-based cytotoxicity assay, MES-SA/Dx5. The class given is cell-based, human. The following applies: for IC50: 120 h, ± SD, n = 3; for SR, selectivity ratio IC50 (MES-SA)/IC50 (MES-SA/Dx5): in the absence of TQ. From the text: (§1) The cytotoxic activity of proligands H2L^3–H2L^6 and their copper(II) complexes 3–6 was investigated in the MES-SA (human uterine sarcoma) and in its MDR counterpart (MES-SA/Dx5) cell lines by a fluorescent protein-based assay.[73]
(§2) The human uterine sarcoma cell lines MES-SA and the doxorubicin selected MES-SA-Dx5 were obtained from ATCC (MES-SA: No. CRL-1976, MES-SA/Dx5: No. CRL-1977) and were used for the intracellular ROS generation studies. For cytotoxicity, we used the fluorescent cell lines MES-SA mCherry and MES-SA/Dx5 eGFP, which were created by lentiviral transductions of the respective genes.[73] The phenotype of the resistant cells was maintained by 500 nM doxorubicin treatment a week before use and was verified using cytotoxicity assays. Cells were cultivated at 37 °C, 5% CO2 in Dulbecco’s modified Eagle's Medium (DMEM, Sigma-Aldrich), supplemented with 10% fetal bovine serum, 5 mM glutamine, and 50 unit/mL penicillin and streptomycin (Thermo Fisher).
(§3) MES-SA mCherry and MES-SA/Dx5 eGFP cell suspensions were seeded after trypsinization at 2500 cells/20 μL density on 384-well plates, containing 20 μL of completed medium. The next day, serial dilution of the compounds was prepared and added in an additional 20 μL, with or without 0.4 μM Tariquidar. Liquid handling steps were performed by a Hamilton StarLet robot. […] The mean and standard deviation of the pIC50 values were calculated and converted to IC50 values.

In a further data set the test system is MES-SA cells. Description: Fluorescent protein-based cytotoxicity assay, MES-SA. The class given is cell-based, human. The following applies: 120 h, ± SD, n = 3.
From the text: as §1, §2, §3

Data set [2] is described as follows: Redox reaction of the copper(II) complexes with GSH (UV–vis, anoxic). Type of data set: physicochemical. Particulars: pH 7.4 (50 mM HEPES); ccomplex = 25 μM; cGSH = 1.25 mM; pure water; 25 °C. From the text:
The direct reduction of the copper(II) complexes with the antioxidant GSH was investigated in anoxic aqueous solution at pH 7.4 by UV–vis spectrophotometry. At this pH, the complex [Cu(HL)]^+ is assumed to predominate according to the speciation studies (vide supra). The spectral changes were monitored in the wavelength range 250–550 nm by using a large excess of GSH (50 equiv). In this wavelength range, the spectral changes are due to the absorption of the metal complex and the ligand.
These changes imply that, after reduction in the presence of excess GSH, the generated copper(I) complex is not stable and liberates the free TSC ligand. […] The time-dependent absorbance changes are shown for all the studied systems in Figure 4b. The observed rate constants (kobs) were calculated (Table 2) as a semiquantitative description of the reaction kinetics. […] The obtained kobs values fall into the range for Triapine (0.10 min^–1), 2-pyridinecarboxaldehyde TSC (0.041 min^–1), and N-monomethylated N-methyl-Triapine (0.077 min^–1), measured under similar conditions.[67] To find out whether this slightly different kinetics for 6 and 3–5 is in accordance with their reduction potentials, cyclic voltammetry was performed.
The redox reaction of the copper(II) complexes with GSH and ascorbic acid was studied at 25.0 ± 0.1 °C on a Hewlett-Packard 8452A diode array spectrophotometer using a special, tightly closed tandem cuvette (Hellma Tandem Cell, 238-QS). The reactants were separated until the reaction was triggered. Both isolated pockets of the cuvette were completely deoxygenated by bubbling a stream of Ar for 10 min before mixing the reactants. Spectra were recorded before and then immediately after the mixing, and changes were followed until no further absorbance change was observed. One of the isolated pockets contained the reducing agent, and the other contained the complex. Their final concentrations were 1250 and 25 μM, respectively. The pH of all the solutions was adjusted to 7.40 by 50 mM HEPES buffer. The ionic strength of the solution was 0.1 M (KCl). The stock solutions of the reducing agents and the complexes were freshly prepared every day. During the calculations, the absorbance (A) – time (t) curves were fitted and analyzed at the λmax of the complex. (A0 – Afinal) × e^(−a×t) + Afinal was the fitting equation used, where the A0, Afinal, and a parameters were refined and accepted at the minimal value of the weighted sum of squared residuals (difference between the measured and calculated absorbance values) at the given wavelength. Then, observed rate constants (kobs) of the redox reaction were obtained from the data points of the simulated absorbance–time curves as the slope of the ln(A/A0) vs time plots.

Data set [3] in a line: Cyclic voltammetry of copper(II) complexes in DMSO/n-Bu4NPF6. The class given is physicochemical. Here is the method:
The redox properties of the copper(II) complexes 3–6 were investigated by electrochemical, EPR, and UV–vis spectroelectrochemical measurements. […] While the half-wave reduction potentials E1/2^red for complexes 3–5 were almost the same (−0.82 V vs Fc^+/Fc), the E1/2^red for 6 is by 0.07 V more positive (−0.75 V vs Fc^+/Fc), as summarized in Table 4. The corresponding proligands are not redox active in the cathodic part (not shown).
Cyclic voltammetric experiments with 0.5 mM solutions of copper(II) complexes 3–6 in 0.1 M nBu4NPF6 (puriss quality from Fluka; dried under reduced pressure at 70 °C for 24 h before use) as supporting electrolyte in DMSO (SeccoSolv max. 0.025% H2O, Merck) were performed under Ar using a three-electrode arrangement with Pt wire as the counter electrode and Ag wire as the pseudoreference electrode. Glassy carbon or Pt wire served as the working electrode. Ferrocene purchased from Sigma-Aldrich was used as the internal potential standard without further purification. All potentials in voltammetric studies were quoted vs ferricenium/ferrocene (Fc^+/Fc) as the redox couple. A Heka PG310USB (Lambrecht, Germany) potentiostat with a PotMaster 2.73 software package served for the potential control in voltammetric studies. In situ ultraviolet–visible-near-infrared (UV–vis–NIR) spectroelectrochemical measurements were performed on a spectrometer (Avantes, Model AvaSpec-2048 × 14-USB2 in the spectroelectrochemical cell kit ([…]3) with the Pt-microstructured honeycomb working electrode, purchased from Pine Research Instrumentation. The cell was positioned in the CUV-UV Cuvette Holder (Ocean Optics) connected to the diode array UV–vis-NIR spectrometer by optical fibers. UV–vis-NIR spectra were processed using the AvaSoft 7.7 software package. Halogen and deuterium lamps were used as light sources (Avantes, Model AvaLight-DH-S-BAL).

Data set [4] can be described thus: Conditional stability constants of the copper(II) complexes by EDTA displacement (UV–vis). Type of data set: physicochemical. Here is the method:
The stability constants of 3–6 were determined by EDTA competition experiments monitored by UV–vis spectrophotometry at pH 5.9, where the [Cu(HL)]^+ species is dominant. Since the displacement of the TSC ligand by EDTA is relatively slow, a 2 h reaction time was used to reach equilibrium. Upon increasing the concentration of EDTA, the absorbance of the characteristic S → Cu charge transfer band at 400–416 nm decreased (see, for example, Figure 3 for the copper(II)–H2L^4 (1:1) system).[68] The experiments were performed in both aqueous solution and the 30% (v/v) DMSO/H2O solvent mixture. The determined conditional (apparent) formation constants (log K′5.9) are rather similar (see Table 2) in both media. However, the values are lower in the DMSO/H2O solvent mixture than in aqueous solution, presumably due to coordination of DMSO to copper(II). An analogous observation was reported for the copper(II) complex of Triapine.[67] […] To compare the copper(II) binding ability of the studied TSCs H2L^3–H2L^6 at pH 5.9 (at which the conditional constants were determined), pCu (−log [Cu(II)]) values were also computed using the experimentally determined equilibrium constants (Table 2). The higher pCu value indicates a stronger metal ion binding ability of the ligand under given circumstances. The ligands form complexes with fairly similar stability, in agreement with the conditional stability constants. […] A similar behavior was reported for aqueous solutions of the N-terminally dimethylated derivative of the 2-pyridinecarboxaldehyde TSC (PTSC)[69] and for the corresponding morpholine-hybrid Morph-dm-FTSC.[52] In particular, the calculated pCu values were also very close, 13.17 for PTSC vs 13.08 for Morph-dm-FTSC calculated at pH 7.4.
The path length was 1 cm.

For the compound `NC(=S)N/N=C/c1ccccn1` [2-pyridinecarboxaldehyde TSC], in data set [1], the “kobs, reduction by GSH” value is 0.041 min^–1.

`COc1ccc(/C=C\c2cc(OC)c(OC)c(OC)c2)cc1O` [C-A4, Combretastatin A-4, reference compound]: in the data set with purified tubulin, the IC50 (as a rule, the concentration that gives 50% inhibition) was found to be […]. The “inhibition of colchicine binding % inhibition ± SD” value in the data set with tubulin (0.5 μM inhibitor) turned out to be 85 ± 2%.

As for `COc1cccc2c1C(=O)c1c(O)c3c(c(O)c1C2=O)C[C@@](O)(C(=O)CO)C[C@@H]3O[C@H]1C[C@H](N)[C@H](O)[C@H](C)O1` [Doxorubicin, reference compound], the IC50 is 1.9 ± 0.6 µM in the data set on MES-SA/Dx5 cells (Homo sapiens, MES-SA/Dx5) and 0.04 ± 0.01 µM with MES-SA cells (Homo sapiens, MES-SA). Besides, the “SR, selectivity ratio IC50 (MES-SA)/IC50 (MES-SA/Dx5)” value with MES-SA/Dx5 cells was found to be 0.02.

In the case of `Cc1cc(NC(=NN=Cc2ncccc2CN2CCOCC2)[S][Cu][Cl])cc(C)c1O` [complex 3, [Cu(HL^3)Cl]·H2O], the “kobs, redox reaction with GSH” value in data set [2] is 0.059 ± 0.004 min^–1. The IC50 with purified tubulin is 7 ± 0.3 µM; in the data set with MES-SA/Dx5 cells, 5.5 ± 0.6 µM; in the data set on MES-SA cells, 15 ± 3 µM. In data set [3] (first anodic peak potential vs Fc+/Fc, 100 mV s^–1), the “Epa^1” value was “+0.27 V”. For the same compound, the “Epa^2” value in data set [3] (second anodic peak potential vs Fc+/Fc, 100 mV s^–1) is on record as “+0.79 V”. The “E1/2^red” value in data set [3] (vs Fc+/Fc, scan rate 100 mV s^–1) is “–0.83 V”. Also, the “SR, selectivity ratio IC50 (MES-SA)/IC50 (MES-SA/Dx5)” value in the data set with MES-SA/Dx5 cells was 2.76. In addition, in data set [4] (EDTA displacement, UV–vis, pH 5.9, 30% (v/v) DMSO/H2O, 25 °C), the “logK′5.9 (DMSO/H2O)” value stood at 10.33 ± 0.01. For the same compound, the “logK′5.9 (H2O)” value in data set [4] (EDTA displacement, UV–vis, pH 5.9, water, I = 0.1 M (KCl), 25 °C) was 13.82 ± 0.04. In addition, in data set [4] (calcd. at pH 5.9, cL = cCu(II) = 1 μM), the “pCu5.9 (=–log[Cu(II)])” value is listed as 8.20. Besides, the entries for the “inhibition of colchicine binding % inhibition ± SD” value in the data set on tubulin (5 μM inhibitor) and in the data set on tubulin (25 μM inhibitor) were 22 ± 2% and 40 ± 3%, respectively. In the data set on tubulin (at the 5 μM concentration), the “fold less potent than CA-4 in inhibiting [3H]colchicine binding” value worked out at 4.5 fold.
